In patent US20260262643A1, “HERBICIDAL BENZOXAZINES” (FMC CORPORATION, priority 2022, published 2026):

What was measured:
barnyardgrass [1] = test: Test C postemergence; type: in vivo, Echinochloa crusgalli; details: 10 days, 0 to 100 scale (0 no effect, 100 complete control)
Outline: (§1)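 Soil-applied (pre) and foliar (post, 1–2 leaf, 2–10 cm) sprays; surfactant-containing non-phytotoxic solvent vehicle; loam/sand substrate. Readout: visual % control at 10 d, greenhouse, versus untreated.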

green foxtail [2] = test: Test C preemergence; type: in vivo, Setaria viridis
Outline: as §1

horseweed = test: Test C postemergence; type: in vivo, Erigeron canadensis; details: 10 days, 0 to 100 scale (0 no effect, 100 complete control)
Outline: as §1

ragweed [3] = test: Test C postemergence; type: in vivo, Ambrosia artemisiifolia; details: 10 days, 0 to 100 scale (0 no effect, 100 complete control)
Outline: as §1

blackgrass [4] = test: Test C postemergence; type: in vivo, Alopecurus myosuroides; details: 10 days, 0 to 100 scale (0 no effect, 100 complete control)
Outline: as §1

ryegrass, Italian [5] = test: Test C preemergence; type: in vivo, Lolium multiflorum
Outline: as §1

rice = test: Test D flooded paddy test; type: in vivo, Oryza sativa; details: 250 g ai/ha, applied to paddy water, visual rating after 13 to 14 days, scale 0 to 100 (0 no effect, 100 complete control)
Outline: (§2)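 Visual ratings from 0, meaning no effect, to 100, meaning complete control, were assigned against untreated controls 13 to 14 days after compounds were added to the floodwater of pots kept 3 cm deep, with plants at the 2-leaf stage.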

kochia [6] = test: Test C postemergence; type: in vivo, Bassia scoparia; details: 10 days, 0 to 100 scale (0 no effect, 100 complete control)
Outline: as §1

sedge, umbrella = test: Test D flooded paddy test; type: in vivo, Cyperus difformis; details: 250 g ai/ha, applied to paddy water, visual rating after 13 to 14 days, scale 0 to 100 (0 no effect, 100 complete control)
Outline: as §2

green foxtail [7] = test: Test C postemergence; type: in vivo, Setaria viridis; details: 10 days, 0 to 100 scale (0 no effect, 100 complete control)
Outline: as §1

corn [8] = test: Test C postemergence; type: in vivo, Zea mays; details: 10 days, 0 to 100 scale (0 no effect, 100 complete control)
Outline: as §1

soybean [9] = test: Test C postemergence; type: in vivo, Glycine max; details: 10 days, 0 to 100 scale (0 no effect, 100 complete control)
Outline: as §1

oat, wild [10] = test: Test C preemergence; type: in vivo, Avena fatua
Outline: as §1

galium = test: Test C postemergence; type: in vivo, Galium aparine; details: 10 days, 0 to 100 scale (0 no effect, 100 complete control)
Outline: as §1

ryegrass, Italian [11] = test: Test C postemergence; type: in vivo, Lolium multiflorum; details: 10 days, 0 to 100 scale (0 no effect, 100 complete control)
Outline: as §1

pigweed, palmer [12] = test: Test C preemergence; type: in vivo, Amaranthus palmeri
Outline: as §1

ragweed [13] = test: Test C preemergence; type: in vivo, Ambrosia artemisiifolia
Outline: as §1

oat, wild [14] = test: Test C postemergence; type: in vivo, Avena fatua; details: 10 days, 0 to 100 scale (0 no effect, 100 complete control)
Outline: as §1

ducksalad = test: Test D flooded paddy test; type: in vivo, Heteranthera limosa; details: 250 g ai/ha, applied to paddy water, visual rating after 13 to 14 days, scale 0 to 100 (0 no effect, 100 complete control)
Outline: as §2

soybean [15] = test: Test C preemergence; type: in vivo, Glycine max
Outline: as §1

blackgrass [16] = test: Test C preemergence; type: in vivo, Alopecurus myosuroides
Outline: as §1

pigweed, palmer [17] = test: Test C postemergence; type: in vivo, Amaranthus palmeri; details: 10 days, 0 to 100 scale (0 no effect, 100 complete control)
Outline: as §1

wheat [18] = test: Test C preemergence; type: in vivo, Triticum aestivum
Outline: as §1

barnyardgrass [19] = test: Test D flooded paddy test; type: in vivo, Echinochloa crus-galli; details: 250 g ai/ha, applied to paddy water, visual rating after 13 to 14 days, scale 0 to 100 (0 no effect, 100 complete control)
Outline: as §2

barnyardgrass [20] = test: Test C preemergence; type: in vivo, Echinochloa crusgalli
Outline: as §1

corn [21] = test: Test C preemergence; type: in vivo, Zea mays
Outline: as §1

kochia [22] = test: Test C preemergence; type: in vivo, Bassia scoparia
Outline: as §1

wheat [23] = test: Test C postemergence; type: in vivo, Triticum aestivum; details: 10 days, 0 to 100 scale (0 no effect, 100 complete control)
Outline: as §1

[24] = 500 g ai/ha, preemergence, 0 to 100 scale (0 no effect, 100 complete control)
[25] = Preemergence, 125 g ai/ha, 0 to 100 scale, 0 no effect, 100 complete control

Which “Plant response rating, Barnyardgrass” value (barnyardgrass [1]; 500 g ai/ha, postemergence) does the source give for COC(C)c1ncn(-c2ccc(C)c(C(=O)N3CC(C)Oc4c(Cl)cccc43)c2)n1 (mixture of isomers) [Compound 359] here?
Its value is 90.

What about the “Plant response rating, Barnyardgrass” value (barnyardgrass [1]; Postemergence, 125 g ai/ha) of the same compound?
Its value is 30.

And the “Foxtail, Green plant response rating” value (green foxtail [2]; [24])?
Its value is 100.

What about the “Plant response rating, Foxtail, Green” value (green foxtail [2]; [25]) of the same compound?
Its value is 100.

What about the “Plant response rating, Horseweed” value (horseweed; 500 g ai/ha, postemergence) of the same compound?
The value was 90.

And the “Plant response rating, Horseweed” value (horseweed; Postemergence, 125 g ai/ha)?
Its value is 70.

What about the “Plant response rating, Ragweed” value (ragweed [3]; 500 g ai/ha, postemergence) of the same compound?
Its value is 80.

What about the “Plant response rating, Ragweed” value (ragweed [3]; Postemergence, 125 g ai/ha) of the same compound?
Its value is 60.

What about the “Plant response rating, Blackgrass” value (blackgrass [4]; 500 g ai/ha, postemergence) of the same compound?
Its value is 100.

And the “Plant response rating, Blackgrass” value (blackgrass [4]; Postemergence, 125 g ai/ha)?
The value was 60.

What about the “Ryegrass, Italian plant response rating” value (ryegrass, Italian [5]; [24]) of the same compound?
The value was 100.

What about the “Plant response rating, Ryegrass, Italian” value (ryegrass, Italian [5]; [25]) of the same compound?
The value was 90.

What about the “Plant response rating, Rice (Flood)” value (rice) of the same compound?
Its value is 10.

And the “Plant response rating, Kochia” value (kochia [6]; 500 g ai/ha, postemergence)?
Its value is 80.

What about the “Plant response rating, Kochia” value (kochia [6]; Postemergence, 125 g ai/ha) of the same compound?
Its value is 50.

What about the “Plant response rating, Sedge, Umbrella (Flood)” value (sedge, umbrella) of the same compound?
The value was 65.

And the “Plant response rating, Foxtail, Green” value (green foxtail [7]; 500 g ai/ha, postemergence)?
Its value is 80.

What about the “Plant response rating, Foxtail, Green” value (green foxtail [7]; Postemergence, 125 g ai/ha) of the same compound?
Its value is 50.

What about the “Plant response rating, Corn” value (corn [8]; 500 g ai/ha, postemergence) of the same compound?
The value was 80.

What about the “Plant response rating, Corn” value (corn [8]; Postemergence, 125 g ai/ha) of the same compound?
Its value is 40.

And the “Plant response rating, Soybean” value (soybean [9]; 500 g ai/ha, postemergence)?
Its value is 100.

What about the “Plant response rating, Soybean” value (soybean [9]; Postemergence, 125 g ai/ha) of the same compound?
The value was 100.

And the “Oat, Wild plant response rating” value (oat, wild [10]; [24])?
Its value is 90.

What about the “Plant response rating, Oat, Wild” value (oat, wild [10]; [25]) of the same compound?
The value was 90.

What about the “Plant response rating, Galium” value (galium; 500 g ai/ha, postemergence) of the same compound?
The value was 100.

And the “Plant response rating, Galium” value (galium; Postemergence, 125 g ai/ha)?
Its value is 100.

And the “Plant response rating, Ryegrass, Italian” value (ryegrass, Italian [11]; 500 g ai/ha, postemergence)?
The value was 100.

What about the “Plant response rating, Ryegrass, Italian” value (ryegrass, Italian [11]; Postemergence, 125 g ai/ha) of the same compound?
The value was 90.

And the “Pigweed, Palmer plant response rating” value (pigweed, palmer [12]; [24])?
Its value is 100.

What about the “Plant response rating, Pigweed, Palmer” value (pigweed, palmer [12]; [25]) of the same compound?
Its value is 90.

What about the “Ragweed plant response rating” value (ragweed [13]; [24]) of the same compound?
Its value is 100.

And the “Plant response rating, Ragweed” value (ragweed [13]; [25])?
The value was 0.

And the “Plant response rating, Oat, Wild” value (oat, wild [14]; 500 g ai/ha, postemergence)?
The value was 90.

What about the “Plant response rating, Oat, Wild” value (oat, wild [14]; Postemergence, 125 g ai/ha) of the same compound?
The value was 60.

And the “Plant response rating, Ducksalad (Flood)” value (ducksalad)?
The value was 60.

And the “Soybean plant response rating” value (soybean [15]; [24])?
The value was 100.

And the “Plant response rating, Soybean” value (soybean [15]; [25])?
The value was 80.

What about the “Blackgrass plant response rating” value (blackgrass [16]; [24]) of the same compound?
Its value is 100.

And the “Plant response rating, Blackgrass” value (blackgrass [16]; [25])?
The value was 80.

And the “Plant response rating, Pigweed, Palmer” value (pigweed, palmer [17]; 500 g ai/ha, postemergence)?
The value was 100.

And the “Plant response rating, Pigweed, Palmer” value (pigweed, palmer [17]; Postemergence, 125 g ai/ha)?
Its value is 60.

What about the “Wheat plant response rating” value (wheat [18]; [24]) of the same compound?
The value was 80.

And the “Plant response rating, Wheat” value (wheat [18]; [25])?
Its value is 30.

What about the “Plant response rating, Barnyardgrass (Flood)” value (barnyardgrass [19]) of the same compound?
The value was 15.

What about the “Barnyardgrass plant response rating” value (barnyardgrass [20]; [24]) of the same compound?
Its value is 100.

And the “Plant response rating, Barnyardgrass” value (barnyardgrass [20]; [25])?
Its value is 100.

And the “Corn plant response rating” value (corn [21]; [24])?
Its value is 30.

What about the “Plant response rating, Corn” value (corn [21]; [25]) of the same compound?
Its value is 20.

What about the “Kochia plant response rating” value (kochia [22]; [24]) of the same compound?
Its value is 100.

What about the “Plant response rating, Kochia” value (kochia [22]; [25]) of the same compound?
Its value is 100.

And the “Plant response rating, Wheat” value (wheat [23]; 500 g ai/ha, postemergence)?
The value was 90.

And the “Plant response rating, Wheat” value (wheat [23]; Postemergence, 125 g ai/ha)?
Its value is 30.
